Tests used:
histone modifications = assay: Effect of glucose on histone modifications in WT and ubp8∆ ubp10∆ mutant (Western blot); assay type: cell-based, budding yeast (Saccharomyces cerevisiae); details: for relative histone modification level (Figure S1c): 0.5 hr
From the text: To identify the signaling pathway that mediates glucose-induced H3K4me3, we first examined the effect of glucose on histone modifications that regulate Set1-catalyzed H3K4me3, including H2BK123 monoubiquitination (H2Bub) and H3R2 asymmetric dimethylation (H3R2me2a)[30]–[32]. […] We then determine whether glucose increases H3K4me3 by inducing H2Bub. As there is no H3K4me3 in the deletion mutants of RAD6 and BRE1, which catalyze H2Bub[30],[31], it is impossible to determine the effect of glucose on H3K4me3 in rad6Δ and bre1Δ mutants. We thus examined the effect of glucose on H3K4me3 in the deletion mutant of UBP8 and UBP10, which encode H2B ubiquitin proteases[33],[34]. […] We also examined the effect of glucose on the activity of Set1-containing complex (COMPASS).
To examine the effect of glucose on histone modifications, yeast cells were grown in 2% glucose-containing YPD (Yeast Extract Peptone Dextrose) medium until OD600 of 0.7–1.0. Cells were then collected, washed and resuspended in YP medium for 3 hr followed by treatment with different concentrations of glucose for 0.5 hr. For 1NM-PP1 (MCE, HY-13804) treatment, cells were grown in 2% YPD until OD600 of 0.7–1.0. Cells were then treated with 25 μM 1NM-PP1 for 0.5 hr. For FBP and pyruvate treatment, cells were pre-treated with Zymolase (Mpbio, 08320921) to increase the permeability. In brief, cells were grown in YPD medium until OD600 of 0.7–1.0, centrifuged and resuspended in 1 ml SB buffer (100 mM Sorbitol, 20 mM Tris pH 7.4). 10 μl Zymolase was then added and incubated at 30 °C for 15 min. The spheroplasts were washed and cultured in YPD medium containing different concentrations of FBP and pyruvate for 3 hr.
Cells were grown in 5 ml YPD or selective medium until OD600 of 0.7–1.0. Cells were harvested and lysed in alkaline lysis buffer (2 M NaOH, 8% 2-mercaptoethanol). After centrifugation, the protein pellet was resuspended in 150 μl 2×SDS-sample buffer. Protein samples were separated by 8–15% SDS-PAGE and transferred to PVDF membrane. The blots were probed with primary antibodies followed by incubation with horseradish peroxidase-labelled IgG secondary antibodies. The protein bands were visualized using the ECL Chemiluminescence Detection Kit (Bio-Rad, 170–5061) and quantified with Image J software (v.1.8.0).
Supplementary Fi g . 1 Glu cose induces H3K4me 3 via the Ras-cAMP-PKA(T p k 2) pathway. […]
Cells were th en tr eat ed with YP medium supplement ed with differen t concentrations of glucos e for 0.5 hr. C ells were h ar vested an d the ex tract ed histones w er e anal yz ed by Western blots with indicat ed ant ibodies. To d et ect H2B monoubiquitination, H2B-F LAG strain w as used and d et ect ed with anti -F LAG ant ibody. Th e upper bands ar e monoubiquitinat ed H2B-F LAG. c E ff e c t of gl ucose on histone modifications in WT and ubp8∆ ubp10∆ mutant. WT and ubp8∆ ubp10∆ mut ant w er e gro wn in YPD medium unti l OD600 of […]
For Supplem ent ar y Fi g. 1b, e-g, i-k, d at a r ep res ent means ± SEM; n=3 i ndependent ex perim ents. For Supplem entar y Fi g. 1c, d ata represent means ± SEM; n=4 independent ex periments. Tw o -sided t-tests were used for statistical analysis.

COMPASS (Spp1-CBP) = assay: In vitro histone methyltransferase (HMT) assay with purified COMPASS; assay type: biochemical, budding yeast (Saccharomyces cerevisiae); details: COMPASS (Spp1-CBP) purified from cells grown in 0.05% glucose
Protocol: The HMT reactions were carried out using purified COMPASS (Spp1-CBP) and 15 μg recombinant H3 in 50 μl reaction buffer (50 mM Tris pH 8.5, 20 mM KCl, 10 mM MgCl2, 10 mM 2-mercaptoethanol, 100 μM SAM, 250 mM sucrose, protease inhibitor cocktail) at 30 °C for 0–2 hr. Reactions were quenched by adding 5 × SDS loading buffer and boiled at 95°C for 5 min. Protein was separated on a 10–20% SDS-PAGE gel followed by Western blots with the antibodies indicated.
Supplementary Fi g . […] WT (a) and H2B-F LA G cel ls (b) wer e grown in YPD medium until OD600 of 0.7.
Cells were th en tr eat ed with YP medium supplement ed with differen t concentrations of glucos e for 0.5 hr. C ells were h ar vested an d the ex tract ed histones w er e anal yz ed by Western blots with indicat ed ant ibodies. To d et ect H2B monoubiquitination, H2B-F LAG strain w as used and d et ect ed with anti -F LAG ant ibody. Th e upper bands ar e monoubiquitinat ed H2B-F LAG. c E ff e c t of gl ucose on histone modifications in WT and ubp8∆ ubp10∆ mutant. WT and ubp8∆ ubp10∆ mut ant w er e gro wn in YPD medium unti l OD600 of 0.7. Cells wer e th en treated with YP medium supplem ent ed with di fferent con cen tr ations of gl u cos e fo r 0.5 hr. d Gluco se has no effect on the activit y of C O M PA S S . Spp1-TA P cells wer e grown in YPD medium until OD600 of 1.5. Cells were h arv est ed and then […]

OC[C@H]1OC(O)[C@H](O)[C@@H](O)[C@@H]1O (stereo partly drawn) [glucose]
relative histone modification level (Figure S1c) (histone modifications; WT, 0.5% glucose, relative to WT 0.05% = 1, replicate 1): 1.436 | relative histone modification level (Figure S1c) (histone modifications; WT, 0.5% glucose, relative to WT 0.05% = 1, replicate 2): 1.642 | relative histone modification level (Figure S1c) (histone modifications; WT, 0.5% glucose, relative to WT 0.05% = 1, replicate 3): 1.498 | relative histone modification level (Figure S1c) (histone modifications; WT, 0.5% glucose, relative to WT 0.05% = 1, replicate 4): 1.3798 | relative histone modification level (Figure S1c) (histone modifications; WT, 2% glucose, relative to WT 0.05% = 1, replicate 1): 1.805 | relative histone modification level (Figure S1c) (histone modifications; WT, 2% glucose, relative to WT 0.05% = 1, replicate 2): 2.101 | relative histone modification level (Figure S1c) (histone modifications; WT, 2% glucose, relative to WT 0.05% = 1, replicate 3): 2.2062 | relative histone modification level (Figure S1c) (histone modifications; WT, 2% glucose, relative to WT 0.05% = 1, replicate 4): 1.619 | relative histone modification level (Figure S1c) (histone modifications; WT, 4% glucose, relative to WT 0.05% = 1, replicate 1): 1.732 | relative histone modification level (Figure S1c) (histone modifications; WT, 4% glucose, relative to WT 0.05% = 1, replicate 2): 2.2477 | relative histone modification level (Figure S1c) (histone modifications; WT, 4% glucose, relative to WT 0.05% = 1, replicate 3): 2.452 | relative histone modification level (Figure S1c) (histone modifications; WT, 4% glucose, relative to WT 0.05% = 1, replicate 4): 2.7285 | H3K4me3 level in ubp8Δ ubp10Δ mutant (histone modifications; ubp8Δ ubp10Δ, glucose 0.5 hr, Western blot): H3K4me3 was still increased by glucose | relative histone modification level (Figure S1c) (histone modifications; ubp8Δubp10Δ, 0.05% glucose, relative to WT 0.05% = 1, replicate 1): 1.962 | relative histone modification level (Figure S1c) (histone modifications; ubp8Δubp10Δ, 0.05% glucose, relative to WT 0.05% = 1, replicate 2): 2.0252 | relative histone modification level (Figure S1c) (histone modifications; ubp8Δubp10Δ, 0.05% glucose, relative to WT 0.05% = 1, replicate 3): 1.753 | relative histone modification level (Figure S1c) (histone modifications; ubp8Δubp10Δ, 0.05% glucose, relative to WT 0.05% = 1, replicate 4): 1.8754 | relative histone modification level (Figure S1c) (histone modifications; ubp8Δubp10Δ, 0.5% glucose, relative to WT 0.05% = 1, replicate 1): 2.076 | relative histone modification level (Figure S1c) (histone modifications; ubp8Δubp10Δ, 0.5% glucose, relative to WT 0.05% = 1, replicate 2): 2.387 | relative histone modification level (Figure S1c) (histone modifications; ubp8Δubp10Δ, 0.5% glucose, relative to WT 0.05% = 1, replicate 3): 2.436 | relative histone modification level (Figure S1c) (histone modifications; ubp8Δubp10Δ, 0.5% glucose, relative to WT 0.05% = 1, replicate 4): 1.826 | relative histone modification level (Figure S1c) (histone modifications; ubp8Δubp10Δ, 2% glucose, relative to WT 0.05% = 1, replicate 1): 2.343 | relative histone modification level (Figure S1c) (histone modifications; ubp8Δubp10Δ, 2% glucose, relative to WT 0.05% = 1, replicate 2): 2.512 | relative histone modification level (Figure S1c) (histone modifications; ubp8Δubp10Δ, 2% glucose, relative to WT 0.05% = 1, replicate 3): 2.749 | relative histone modification level (Figure S1c) (histone modifications; ubp8Δubp10Δ, 2% glucose, relative to WT 0.05% = 1, replicate 4): 2.579 | relative histone modification level (Figure S1c) (histone modifications; ubp8Δubp10Δ, 4% glucose, relative to WT 0.05% = 1, replicate 1): 3.366 | relative histone modification level (Figure S1c) (histone modifications; ubp8Δubp10Δ, 4% glucose, relative to WT 0.05% = 1, replicate 2): 3.228 | relative histone modification level (Figure S1c) (histone modifications; ubp8Δubp10Δ, 4% glucose, relative to WT 0.05% = 1, replicate 3): 2.75 | relative histone modification level (Figure S1c) (histone modifications; ubp8Δubp10Δ, 4% glucose, relative to WT 0.05% = 1, replicate 4): 2.722 | HMT activity of COMPASS (COMPASS (Spp1-CBP)): did not affect the HMT activity of COMPASS

Source: PMC9515143, “Phosphorylation of Jhd2 by the Ras-cAMP-PKA(Tpk2) pathway regulates histone modifications and autophagy” (Nature Communications, 2022)
